Results: ChEMBL document CHEMBL1287693, “Selective accumulation of a novel antimalarial rhodacyanine derivative, SSJ-127, in an organelle of Plasmodium berghei” (Bioorg Med Chem, 2010)
The source made the active and inactive calls. The calls are words filed in the database; no cut-off is given here.

Columns and labels:
[1] = Drug uptake in blood stage of Plasmodium berghei NK65 infected ICR mice (Mus musculus) RBCs at 0.25 uM after 20 min using Rhodamine 123 by fluorescence microscopy; type: ADME, tissue-based; conditions: erythrocyte
Plasmodium berghei [2] = assay: Effect on multidrug resistance protein-mediated Rhodamine 123 drug uptake in blood stage of Plasmodium berghei NK65 mitochondria infected ICR mice (Mus musculus) RBCs at 10 nM after 20 min by fluorescence microscopy
Plasmodium berghei [3] = assay: Antimalarial activity against Plasmodium berghei NK65 infected in mice (Mus musculus) assessed as reduction of parasitaemia at 40 mg/kg, subcutaneous after 23 hrs (reference value: 8.2 to 25.3 %); type: functional; set-up: scale not given: the % may be the effect or the level left
Mus musculus = assay: Drug uptake in Plasmodium berghei NK65 infected ICR mice (Mus musculus) RBCs at 40 mg/kg, subcutaneously qd for 3 days after 23 hrs; type: ADME, organism-based; set-up: dose 40 mg/kg, route subcutaneous; conditions: in vivo, sc
Plasmodium berghei [4] = assay: Drug uptake in schizont stage of Plasmodium berghei NK65 infected in ICR mice (Mus musculus) RBCs at 10 nM after 20 min using Rhodamine 123 by fluorescence microscopy; type: ADME, organism-based; conditions: in vivo, 0.01 µM
Plasmodium berghei [5] = assay: Drug uptake in late trophozoite stage of Plasmodium berghei NK65 infected in ICR mice (Mus musculus) RBCs at 10 nM after 20 min using Rhodamine 123 by fluorescence microscopy; type: ADME, organism-based; conditions: in vivo, 0.01 µM
[6] = Drug uptake in blood stage of Plasmodium berghei NK65 mitochondria infected ICR mice (Mus musculus) RBCs at 0.25 uM after 20 min using Rhodamine 123 by fluorescence microscopy; type: ADME
Plasmodium berghei [7] = assay: Antimalarial activity against Plasmodium berghei NK65 infected in mice (Mus musculus) assessed as increase of mice (Mus musculus) survival days at 40 mg/kg, subcutaneous daily for 3 days measured up to 18 months; type: functional, organism-based; set-up: dose 40 mg/kg
Plasmodium berghei [8] = assay: Antimalarial activity against Plasmodium berghei NK65 infected in mice (Mus musculus) assessed as reduction of parasitaemia at 40 mg/kg, subcutaneous daily for 3 days; type: functional; set-up: scale not given: the % may be the effect or the level left
Plasmodium berghei [9] = assay: Drug uptake in ring stage of Plasmodium berghei NK65 infected in ICR mice (Mus musculus) RBCs at 10 nM after 20 min using Rhodamine 123 by fluorescence microscopy; type: ADME, organism-based; conditions: in vivo, 0.01 µM
[10] = Drug uptake in blood stage of Plasmodium berghei NK65 nucleus infected ICR mice (Mus musculus) RBCs at 0.25 uM after 20 min using Rhodamine 123 by fluorescence microscopy; type: ADME, tissue-based
Plasmodium berghei [11] = assay: Drug uptake in early trophozoite stage of Plasmodium berghei NK65 infected in ICR mice (Mus musculus) RBCs at 10 nM after 20 min using Rhodamine 123 by fluorescence microscopy; type: ADME, organism-based; conditions: in vivo, 0.01 µM
Plasmodium berghei [12] = assay: Effect on multidrug resistance protein-mediated Rhodamine 123 drug uptake in blood stage of Plasmodium berghei NK65 mitochondria infected ICR mice (Mus musculus) RBCs at 10 uM after 20 min by fluorescence microscopy

Row | SMILES | Drug uptake [1] | Drug uptake (Plasmodium berghei [2]) | Activity (Plasmodium berghei [3]) [%] | Drug uptake (Mus musculus) | Drug uptake (Plasmodium berghei [4]) | Drug uptake (Plasmodium berghei [5]) | Drug uptake [6] | Activity (Plasmodium berghei [7]) | Activity (Plasmodium berghei [8]) [%] | Drug uptake (Plasmodium berghei [9]) | Drug uptake [10] | Drug uptake (Plasmodium berghei [11]) | Drug uptake (Plasmodium berghei [12])
1 | CCn1c(=O)/c(=C/C=c2\nc3c(o2)=CC=CN3C)s/c1=C\c1sc2ccccc2[n+]1C.[Cl-] | Active | Active | 10.8 | Active | Active | Active | Active | Active | 100 | Active | Active | Active | 
2 | CCCCCC[C@H]1C(=O)O[C@H](C)[C@H](NC(=O)c2cccc(NC=O)c2O)C(=O)O[C@@H](C)[C@@H]1OC(=O)CC(C)C |  |  |  |  |  |  |  |  |  |  |  |  | inactive
3 | N#CC(C#N)=NNc1cccc(Cl)c1 |  |  |  |  |  |  |  |  |  |  |  |  | inactive
